Tested on: Hartley guinea pigs
Conditions: guinea pig, in vivo

SMILES: CCN(CC)CC(=O)Nc1c(C)cccc1C [lidocaine]
- Duration, time for full recovery: ≈ 30 minutes

SMILES: CCCCN1CCCCC1C(=O)Nc1c(C)cccc1C (centres unmarked) [bupivacaine]
- Duration, time for full recovery: ~90 min

— patent US20040259794A1 (priority 1999, published 2004)
